Data reported in ChEMBL document CHEMBL3085767, “Polypharmacology - foe or friend?” (J Med Chem, 2013).

Legend:
D(2) dopamine receptor = D(2) dopamine receptor (Homo sapiens, UniProt P14416); test: Binding affinity to dopamine D2 receptor (unknown origin) by radioligand binding assay
[1] = target: T1, Adrenergic receptor alpha-1 (Homo sapiens, UniProt P35348+P25100+P35368); test: Binding affinity to adrenergic alpha1 receptor (unknown origin) by radioligand binding assay
T1 sequence (P35348 whole entry): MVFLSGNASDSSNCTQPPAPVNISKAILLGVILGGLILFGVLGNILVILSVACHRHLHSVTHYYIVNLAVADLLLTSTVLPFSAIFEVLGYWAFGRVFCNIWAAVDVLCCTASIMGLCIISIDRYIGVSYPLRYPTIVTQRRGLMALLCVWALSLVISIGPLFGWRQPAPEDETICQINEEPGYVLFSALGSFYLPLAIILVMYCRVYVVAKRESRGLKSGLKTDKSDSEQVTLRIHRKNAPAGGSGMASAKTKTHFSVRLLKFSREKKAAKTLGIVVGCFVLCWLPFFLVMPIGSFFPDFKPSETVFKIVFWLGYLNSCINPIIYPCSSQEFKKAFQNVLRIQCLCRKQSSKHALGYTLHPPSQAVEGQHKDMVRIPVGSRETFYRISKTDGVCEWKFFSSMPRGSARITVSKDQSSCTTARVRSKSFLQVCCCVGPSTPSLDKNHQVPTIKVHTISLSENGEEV
T1 sequence (P25100 whole entry): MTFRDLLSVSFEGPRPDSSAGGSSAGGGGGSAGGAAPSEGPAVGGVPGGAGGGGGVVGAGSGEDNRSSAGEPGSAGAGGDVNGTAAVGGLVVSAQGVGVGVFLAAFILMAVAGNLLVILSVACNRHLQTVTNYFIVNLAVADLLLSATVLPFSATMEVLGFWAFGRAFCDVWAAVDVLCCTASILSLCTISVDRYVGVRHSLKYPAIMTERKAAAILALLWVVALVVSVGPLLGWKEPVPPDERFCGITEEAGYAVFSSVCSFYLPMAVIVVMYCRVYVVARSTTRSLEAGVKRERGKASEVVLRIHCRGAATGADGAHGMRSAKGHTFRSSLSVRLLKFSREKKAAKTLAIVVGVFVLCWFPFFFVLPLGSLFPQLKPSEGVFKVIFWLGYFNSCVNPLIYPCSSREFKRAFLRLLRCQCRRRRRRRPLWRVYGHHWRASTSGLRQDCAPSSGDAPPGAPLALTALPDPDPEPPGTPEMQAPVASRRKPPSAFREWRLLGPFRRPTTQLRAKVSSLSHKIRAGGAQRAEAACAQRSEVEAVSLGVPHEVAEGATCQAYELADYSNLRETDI
T1 sequence (P35368 whole entry): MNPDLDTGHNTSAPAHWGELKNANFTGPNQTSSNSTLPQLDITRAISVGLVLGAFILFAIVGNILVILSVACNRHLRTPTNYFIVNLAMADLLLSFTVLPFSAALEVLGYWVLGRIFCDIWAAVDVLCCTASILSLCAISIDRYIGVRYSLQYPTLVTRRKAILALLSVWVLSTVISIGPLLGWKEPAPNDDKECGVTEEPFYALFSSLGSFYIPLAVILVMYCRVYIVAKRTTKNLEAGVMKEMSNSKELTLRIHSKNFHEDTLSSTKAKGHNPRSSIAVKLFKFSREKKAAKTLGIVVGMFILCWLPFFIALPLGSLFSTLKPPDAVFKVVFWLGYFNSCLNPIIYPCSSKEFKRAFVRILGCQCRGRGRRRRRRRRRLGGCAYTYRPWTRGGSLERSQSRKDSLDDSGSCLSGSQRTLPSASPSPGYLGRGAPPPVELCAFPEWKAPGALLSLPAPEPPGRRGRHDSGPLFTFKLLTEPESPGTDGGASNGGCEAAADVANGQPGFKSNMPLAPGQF

[2] = target: 5-hydroxytryptamine receptor 7 (Homo sapiens, UniProt P34969); test: Binding affinity to 5HT7 receptor (unknown origin) by radioligand binding assay
5-hydroxytryptamine receptor 7, sequence (P34969 whole entry): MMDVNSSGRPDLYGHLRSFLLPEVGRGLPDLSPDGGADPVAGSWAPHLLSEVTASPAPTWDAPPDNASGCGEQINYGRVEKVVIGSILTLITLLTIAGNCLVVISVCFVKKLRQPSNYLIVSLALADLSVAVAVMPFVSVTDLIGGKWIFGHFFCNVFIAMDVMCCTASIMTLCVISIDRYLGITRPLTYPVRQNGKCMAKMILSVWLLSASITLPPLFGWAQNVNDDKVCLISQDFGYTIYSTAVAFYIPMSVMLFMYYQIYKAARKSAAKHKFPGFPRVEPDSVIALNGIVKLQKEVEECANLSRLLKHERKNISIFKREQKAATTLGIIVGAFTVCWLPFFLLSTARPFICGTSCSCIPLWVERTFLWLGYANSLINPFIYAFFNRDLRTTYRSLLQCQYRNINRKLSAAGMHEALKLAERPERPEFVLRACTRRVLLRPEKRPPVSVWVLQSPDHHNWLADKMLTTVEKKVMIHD

D(2) dopamine receptor, sequence (P14416 whole entry): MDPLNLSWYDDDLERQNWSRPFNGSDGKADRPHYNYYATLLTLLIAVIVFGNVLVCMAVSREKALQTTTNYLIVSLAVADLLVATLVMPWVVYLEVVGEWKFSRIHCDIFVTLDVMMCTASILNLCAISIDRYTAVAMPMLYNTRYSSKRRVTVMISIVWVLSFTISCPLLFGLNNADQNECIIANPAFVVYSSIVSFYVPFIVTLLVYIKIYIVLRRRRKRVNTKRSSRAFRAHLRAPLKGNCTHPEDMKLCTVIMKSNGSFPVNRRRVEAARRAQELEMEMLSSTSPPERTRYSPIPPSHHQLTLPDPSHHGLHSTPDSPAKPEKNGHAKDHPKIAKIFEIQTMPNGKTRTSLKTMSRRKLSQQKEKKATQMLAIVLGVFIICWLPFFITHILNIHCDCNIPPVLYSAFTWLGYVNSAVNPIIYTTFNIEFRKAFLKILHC

IC50 (D(2) dopamine receptor)	Ki [1]	Ki [2]	Structure (SMILES)
410 nM	–	–	CN(C)CCCN1c2ccccc2CCc2ccccc21 [IMIPRAMINE]
100 nM	–	–	CC(CN1c2ccccc2Sc2ccccc21)N(C)C (centres undefined) [PROMETHAZINE]
–	11 nM	6 nM	O=C1Cc2cc(CCN3CCN(c4nsc5ccccc45)CC3)c(Cl)cc2N1 [ZIPRASIDONE]
